Test results: PubChem BioAssay (NCI)
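Each compound was tested at five concentrations against cells in 96-well plates for 48 hours. GI50 is the concentration that inhibits growth by half. TGI denotes the concentration required for complete inhibition of growth.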

What was measured:
Assay in all cases: DTP human tumour cell line panel, 48 h
[1] = test system: OVCAR-5 ovarian
[2] = test system: T-47D breast
[3] = test system: A498 renal
[4] = test system: KM12 colon
[5] = test system: MCF7 breast
[6] = test system: SK-OV-3 ovarian
[7] = test system: RPMI-8226 leukemia
[8] = test system: HT29 colon
[9] = test system: HOP-62 NSCLC
[10] = test system: SF-268 CNS
[11] = test system: CCRF-CEM leukemia
[12] = test system: OVCAR-4 ovarian
[13] = test system: TK-10 renal
[14] = test system: LOX IMVI melanoma
[15] = test system: SK-MEL-28 melanoma
[16] = test system: 786-0 renal
[17] = test system: A549 NSCLC
[18] = test system: HL-60(TB) leukemia
[19] = test system: U251 CNS
[20] = test system: HCT-116 colon
[21] = test system: HOP-92 NSCLC
[22] = test system: BT-549 breast
[23] = test system: SR leukemia
[24] = test system: OVCAR-8 ovarian
[25] = test system: NCI-H460 lung
[26] = test system: SK-MEL-2 melanoma
[27] = test system: COLO 205 colon
[28] = test system: CAKI-1 renal
[29] = test system: UACC-62 melanoma
[30] = test system: SW-620 colon
[31] = test system: NCI-H226 lung
[32] = test system: MDA-MB-435
[33] = test system: SNB-19 CNS
[34] = test system: DU-145 prostate
[35] = test system: NCI-H23 lung
[36] = test system: SF-295 CNS
[37] = test system: UACC-257 melanoma
[38] = test system: PC-3 prostate
[39] = test system: SK-MEL-5 melanoma
[40] = test system: SNB-75 CNS
[41] = test system: MOLT-4 leukemia
[42] = test system: NCI-H522 lung
[43] = test system: IGROV1 ovarian
[44] = test system: ACHN renal
[45] = test system: OVCAR-3 ovarian
[46] = test system: UO-31 renal
[47] = test system: K-562 leukemia
[48] = test system: RXF 393 renal
[49] = test system: EKVX NSCLC
[50] = test system: MALME-3M melanoma
[51] = test system: M14 melanoma
[52] = test system: SF-539 CNS
[53] = test system: MDA-MB-231 breast
[54] = test system: HCC-2998 colon
[55] = test system: NCI/ADR-RES ovarian
[56] = test system: HCT-15 colon
[57] = test system: SN12C renal

With `COc1ccc2nc3cc(Cl)ccc3c(Nc3ccc(O)c(CN4CCCC4)c3)c2c1` the GI50 [1] was 2.89 µM, the TGI [1] was 7.62 µM and the GI50 [2] was 2.18 µM. The TGI [2] was 6.46 µM, the GI50 [3] was 2.89 µM and the TGI [3] was 12.2 µM. It also gave a GI50 [4] of 3.13 µM, a TGI [4] greater than 100 µM and a GI50 [5] of 1.32 µM. The TGI [5] was 2.87 µM, the GI50 [6] was 6.21 µM and the TGI [6] was 19 µM. It also gave a GI50 [7] of 2.55 µM, a TGI [7] of 6.41 µM and a GI50 [8] of 1.32 µM. For the same molecule, the TGI [8] was 3.44 µM, the GI50 [9] was 2.14 µM and the TGI [9] was 5.34 µM. It also gave a GI50 [10] of 3.79 µM, a TGI [10] greater than 100 µM and a GI50 [11] of 3.06 µM. The TGI [11] was 14.6 µM, the GI50 [12] was 2.7 µM and the TGI [12] was 8.24 µM. It also gave a GI50 [13] of 2.29 µM, a TGI [13] of 4.75 µM and a GI50 [14] of 1.73 µM. The TGI [14] was 3.47 µM, the GI50 [15] was 1.98 µM and the TGI [15] was 3.46 µM. The GI50 [16] was 1.83 µM, the TGI [16] was 3.5 µM and the GI50 [17] was 1.99 µM. The TGI [17] was 4.06 µM, the GI50 [18] was 2.18 µM and the TGI [18] was 6.08 µM. For the same molecule, the GI50 [19] was 2.15 µM, the TGI [19] was 4.44 µM and the GI50 [20] was 1.41 µM. The TGI [20] was 2.92 µM, the GI50 [21] was 3.92 µM and the TGI [21] was 16 µM. It also gave a GI50 [22] of 14.5 µM, a TGI [22] of 28.1 µM and a GI50 [23] of 0.534 µM. The TGI [23] was 3.3 µM, the GI50 [24] was 2.01 µM and the TGI [24] was 4.87 µM. It also gave a GI50 [25] of 2.46 µM, a TGI [25] of 6.15 µM and a GI50 [26] of 1.99 µM. It also gave a TGI [26] of 3.77 µM, a GI50 [27] of 1.83 µM and a TGI [27] of 3.48 µM. For the same molecule, the GI50 [28] was 2.09 µM, the TGI [28] was 4.88 µM and the GI50 [29] was 1.71 µM. For the same molecule, the TGI [29] was 3.51 µM, the GI50 [30] was 1.94 µM and the TGI [30] was 6.19 µM. It also gave a GI50 [31] of 1.84 µM, a TGI [31] of 3.75 µM and a GI50 [32] of 1.76 µM. For the same molecule, the TGI [32] was 3.52 µM, the GI50 [33] was 2.99 µM and the TGI [33] was 13.9 µM. It also gave a GI50 [34] of 2.16 µM, a TGI [34] of 4.77 µM and a GI50 [35] of 2.22 µM. The TGI [35] was 7.08 µM, the GI50 [36] was 1.6 µM and the TGI [36] was 3.53 µM. It also gave a GI50 [37] of 2.15 µM, a TGI [37] of 3.83 µM and a GI50 [38] of 3.28 µM. The TGI [38] was 11 µM, the GI50 [39] was 1.82 µM and the TGI [39] was 3.24 µM. It also gave a GI50 [40] of 1.99 µM, a TGI [40] of 3.79 µM and a GI50 [41] of 2.43 µM. It also gave a TGI [41] of 11.4 µM, a GI50 [42] of 1.67 µM and a TGI [42] of 3.79 µM. The GI50 [43] was 2.6 µM, the TGI [43] was 6.67 µM and the GI50 [44] was 1.74 µM. It also gave a TGI [44] of 3.18 µM, a GI50 [45] of 3.54 µM and a TGI [45] of 15 µM. It also gave a GI50 [46] of 1.83 µM, a TGI [46] of 3.7 µM and a GI50 [47] of 1.99 µM. It also gave a TGI [47] of 6.44 µM, a GI50 [48] of 1.7 µM and a TGI [48] of 3.17 µM. For the same molecule, the GI50 [49] was 3.18 µM, the TGI [49] was 14.4 µM and the GI50 [50] was 2.41 µM. For the same molecule, the TGI [50] was 4.29 µM, the GI50 [51] was 1.89 µM and the TGI [51] was 3.54 µM. It also gave a GI50 [52] of 1.87 µM, a TGI [52] of 3.49 µM and a GI50 [53] of 1.66 µM. The TGI [53] was 3.84 µM, the GI50 [54] was 1.67 µM and the TGI [54] was 3.16 µM. The GI50 [55] was 1.93 µM, the TGI [55] was 4.54 µM and the GI50 [56] was 2.6 µM. The TGI [56] was 10.3 µM, the GI50 [57] was 1.84 µM and the TGI [57] was 4.56 µM.
